Paper PMC8875629, “Novel Antioxidant Peptides from Crassostrea Hongkongensis Improve Photo-Oxidation in UV-Induced HaCaT Cells” (Marine Drugs, 2022)

Experiments:
[1] = test system: UV-irradiated HaCaT cells; assay: Cell viability of UV-irradiated HaCaT cells after pretreatment, CCK-8; assay type: cell-based, human; conditions: pretreatment one day, UV-irradiation
Experimental: For UV-irradiation (Combined UVA and UVB irradiation), HaCaT cells were cultured in 6-well plates (3 × 10^5 cells/well), 12-well plates (1 × 10^5 cells/well), and 96-well plates (1 × 10^4 cells/well) for one day. When cells sufficiently adhered, the medium was removed and cells were washed twice with PBS. Each well contained a thin layer of PBS to keep cell surfaces from drying. The lids of culture plates were opened, and the plates were placed under a UV lamp emitting both UVA (365 nm) and UVB (310 nm) light for 8 min. Irradiation dose was calculated as: Dose (mJ/cm^2) = Exposure time (s) × Intensity (mW/cm^2). After irradiation, cells were washed with warm PBS and incubated with serum-free DMEM for one day or longer.

HaCaT cells = assay: Cytotoxicity in HaCaT cells, CCK-8; conditions: serum-free medium
Experimental: Cells were cultured in Dulbecco’s modified Eagle’s medium (DMEM; Gibco, Thermo Fisher Scientific, Waltham, MA, USA) supplemented with 10% heat-inactivated fetal bovine serum (FBS; Gibco) and 1% antibiotics [100 U/mL penicillin and 100 µg/mL streptomycin (Invitrogen, Thermo Fisher Scientific, Waltham, MA, USA)] at 37 °C in a humidified 5% CO2 incubator (SANYO, Ōsaka, JPN). HaCaT cells were subcultured when they reached 80% to 90% confluence. Cells were cultured for 12 h in 10% heat-inactivated FBS before being used for experiments. When required, HaCaT cells were treated with OPs in a serum-free medium and incubated under the same conditions (Figure 15B).
Cell viability was evaluated by measuring the dehydrogenase-catalyzed formation of a yellow dye in living cells. In the presence of electronic coupling reagents, WST-8 (tetrazolium salt 2-(2-methoxy-4-nitrophenyl)-3-(4-nitrophenyl)-5-(2,4-disulfophenyl) -2H-tetrazolium, monosodium salt (CCK-8)) is reduced to formazan, a yellow dye, by dehydrogenase.
Cells were seeded on 96-well plates at a density of 1 × 10^4 cells/well; viability was measured 24 h after UV-irradiation. […] Absorbance was measured using a microplate reader (Varioskan Flash; Thermo, Waltham, MA, USA) at λ = 450 nm. […] Cytotoxicity and optimal concentrations of OPs were determined using similar steps.

MMP-1 = MMP-1 expression in UV-irradiated HaCaT cells, ELISA; assay type: cell-based, human
Experimental: PINP and MMP-1 levels were measured in cell culture media using enzyme-linked immunoassay (ELISA) kits (Yutong Biological Technology Co., Changzhou, China). All experiments were conducted according to the manufacturer’s instructions. Purified Human MMP-1 antibody is coated in microtiter plate wells, making solid-phase antibodies. Then add the sample to the wells, a Combined antibody which With HRP labeled, become antibody-antigen-enzyme-antibody complex, after washing Completely, Add TMB substrate solution, TMB substrate becomes blue color At HRP enzyme-catalyzed, the reaction is terminated by the addition of a sulphuric acid solution and the color change is measured spectrophotometrically at a wavelength of 450 nm. The concentration of MMP-1 in the samples is then determined by comparing the O.D. of the samples to the standard curve. The content of PINP was determined on the same principles.

For LICIVPK [Peptide VI], the “Effect on survival of UV-irradiated HaCaT cells” value [1] was “beneficial effects” and the Concentration without cytotoxicity (HaCaT cells) was 0 to 600 µg/mL.
Work on GVAMNPVDHPHGGGEGR [Peptide V] yielded a Concentration without cytotoxicity (HaCaT cells) of 0 to 200 µg/mL.
With “TALAIDAIINQK [Peptide III, synthesized peptide identified in OP5-3]” the “Effect on survival of UV-irradiated HaCaT cells” value [1] was “beneficial effects”.
With “AIVAEVNEAAK [Peptide I, synthesized peptide identified in OP5-3]” the “Abnormal upregulation of MMP-1 (synthetic peptides)” value (MMP-1) was “most prominent effect”.
